One data set addresses phospholipase A2. As for the experimental part: (§1) The measurement of the antiphospholipase D activity is carried out by the method of Okuyama et al. described in A. Okuyama, T. Nishikiori, T. Aoyagi and H. Umezawa, Biochemistry international, 4, 417, 1982. Dipalmitoylphosphatidyl choline (DPC) (200 mM) and cholin-methyl-^14 C-DPC (4×10^4 dpm) are suspended ultrasonically in 390 μl of 50 mM tris-hydrochloric acid buffer (pH 5.7) containing 1 mM calcium chloride. To the resulting suspension is added 10 μl of a solution containing the sample to be tested. To the resulting mixture is added 100 μl of a solution of commercially available phospholipase D (derived from cabbage) and reacted at 37° C. for 20 minutes. The reaction is quenched by addition of 1.5 ml of a mixture of chloroform, methanol and conc. hydrochloric acid (2:1:0.02 v/v). To this mixture is then added 1 ml of 50% methanol containing […] potassium chloride and the mixture is stirred. Two layers are separated by centrifugation. The radioactivity (a) of choline liberated from the upper layer by the enzyme is measured. Also, the radioactivity (b) of the buffer free from the sample is measured as a blank test. The percentage inhibition of phospholipase activity is calculated according to the following formula: [(b-a)/b]×100.
(§2) IC50 values correspond to the concentration of the samples giving a 50% inhibition.
(§3) The measurement of the inhibition of phospholipase was accomplished by the method of Okuyama et al. set forth above.

A further data set concerns the target phospholipase C. The procedure: as §1, §2, §3
In data set [1] the target is phospholipase D (derived from cabbage). Nature of the data set: Inhibition of phospholipase D (antiphospholipase D activity, 14C-DPC). It counts as biochemical. The following applies: Table 2. An excerpt: The monitoring of the production of Plipastatin through the cultivation and purification steps is accomplished by measuring the antiphospholipase D activity in accordance with the following method.
Two layers are separated by centrifugation.

Data set [2] has as its system delayed-type hypersensitivity (DTH) in CDF1 mice. Nature of the data set: Cell-mediated immunity: delayed-type hypersensitivity (DTH) to SRBC, footpad swelling. The following applies: for Thickness of footpad: 24 h after secondary SRBC challenge, CDF1 mice; for Percentage with respect to the control: footpad swelling, control = 100%. It counts as in vivo. From the text: This experiment illustrates the effects on the cell-mediated immunity in normal mice.
The activities of Plipastatin A1 and B1 on cell-mediated immunity were studied in terms of delayed-type hypersensitivity (DTH) caused by inoculating mice with antigenic sheep red blood cells (SRBC) in one footpad (Reference: J. Exp. Med., 139, 1529-1539, 1974).
CDF1 mice (female, 8 week of age) were inoculated intravenously with a suspension of 5×10^5 SRBC in physiological saline. At the same time, a single dose of an aqueous solution of 5 mg/Kg or 0.5 mg/Kg of Plipastatin A1 or B1 was administered intraperitoneally to the mice. Four days after the injection, the mice were subjected to the secondary challenge by subcutaneous injection of the other footpad with a suspension of 10^8 SRBC in physiological saline. Twenty-four hours later, the degree of footpad swelling (increasing in the thickness of the footpad) was measured with a caliper. The cell-mediated immunity suppressive effects of the test compounds were determined by comparing the degree of footpad swelling in the treated animals with the degree of footpad swelling (100%) in untreated, control animals that were subcutaneously injected in their footpads with an aqueous solution of SRBC in physiological saline in stead of the test compounds.

In data set [3] the test system is Con A-stimulated T-lymphocytes. Nature of the data set: Reaction of T-lymphocyte blastogenesis, [3H]-thymidine uptake. The following applies: 100 μg/ml (given for Plipastatin A1; not given for B1); 5 μg/ml Con A, 72 hours. It counts as cell-based, BALB/c mice. As for the experimental part:
(§4) This experiment illustrates the suppressive effects of Plipastatin on the reaction of lymphocyte blastogenesis.
(§5) The reaction of lymphocyte blastogenesis was evaluated in terms of the incorporation of [^3 H]-thymidine in the DNA synthesis by both T-cells and B-cells stimulated with concanavalin A (hereunder referred to as Con A) and lipopolysaccharide of E. coli 055:B5. (Reference "Meneki Jikken Sosaho", or "Immunological Experiments Manual", pp. 2267-2276, The Japanese Society for Immunology).
(§6) In the reaction of T-lymphocyte blastogenesis, the T-cells were obtained by passing spleen cells of BALB/c mice (19 weeks old) through a nylon column to remove adsorptive cells and by then cultivating the resulting spleen cells in a plastic Petri dish for one hour to eliminate the remaining adsorptive cells. The cultivation of the T-cells was conducted in wells of a Falcon microtest plate using RPMI 1640 medium containing 20% fetal bovine serum, […] of Hepes, 100 μg/ml of streptomycin and 100 U/ml of penicillin G. The T-lymphocytes (1×10^5), 5 μg/ml of Con A and PLIPASTATIN A1 or B1 were added in that order to the wells and said medium was then added to the wells to make a total of 0.2 ml. The resulting mixture was incubated for 72 hours. The mixture was pulse-labeled with [^3 H]-thymidine at 8 hours before terminating the cultivation. […]

For data set [4], the system named is LPS-stimulated B-lymphocytes. Nature of the data set: Reaction of B-lymphocyte blastogenesis, [3H]-thymidine uptake. It counts as cell-based, BALB/c mice. The settings on record: 100 μg/ml (given for Plipastatin A1; not given for B1); 100 μg/ml LPS, 72 hours. The procedure: as §4, §5, §6
Data set [5] relates to PCA (Passive Cutaneous Anaphylaxis) reactions in rats of the S-D strain. Nature of the data set: PCA (Passive Cutaneous Anaphylaxis) reaction, Evans blue patch. It counts as in vivo. The following applies: for Development of blue patch +, number of animals in a group of five / Development of blue patch -, number of animals in a group of five / Development of blue patch ±, number of animals in a group of five: 150 μl intradermal 5 min before challenge. The procedure: The experiment described below was accomplished in accordance with conventional methods. (Reference: J. Immunology, 106, 1002-1011, 1971). Rats were sensitized with egg albumin antigen to obtain an anti-serum. The rats of the S-D strain (male, 8 wk of age) were passively sensitized by intradermal injection of 50 μl of the thus obtained anti-egg albumin serum on their backs. Forty-eight hours later, each rat was challenged by the intravenous injection of physiological saline containing egg albumin (2.5 mg) plus Evans blue (2.5 mg). Sixty minutes after the injection, any development of blue dye patch due to the extravasation of Evans blue at the sensitized site was checked. Five minutes before the challenge, the test compound (150 μl) was intradermally injected at the sensitized site. DSCG (disodium cromoglycate) was used as a control.

The nature of the next data set: Solubility. The following applies: potassium salts (Table 1). It counts as physicochemical. The procedure:
(All measurements were carried out using potassium salts of the compounds unless otherwise specified.)

The conditions of data set [6]: mouse, in vivo, ip.

Entries after “also recorded” stand apart in the source; their conditions may differ. Bridge positions count the residues as written; N and C are the ends. Square brackets hold non-standard residues; d marks the D form. Peptide text beside a SMILES is read from it. * marks the point of attachment. Hexadecanoyl(3R-OH) = CCCCCCCCCCCCC[C@@H](O)CC(=O)*; d(aThr) = C[C@@H](O)[C@@H](N)C(=O)O; dOrn = NCCC[C@@H](N)C(=O)O

For Plipastatin A1, the “Degree of inhibition, IC50, phospholipase A2” value at phospholipase A2 came out at 4.3 µg/mL. Moreover, the “Degree of inhibition, IC50, phospholipase C” value on phospholipase C was determined as 1.9 µg/mL. In addition, the “Degree of inhibition, IC50, phospholipase D” value in data set [1] amounted to 2.1 µg/mL. Also, in [2] (dose 0.5 mg/Kg single i.p.), the Thickness of footpad is 63 ± 25 × 10^-2 mm and the “Percentage with respect to the control” value came to 64%. Moreover, in data set [2] (dose 5 mg/Kg single i.p.), the Thickness of footpad is 48 ± 16 × 10^-2 mm and the “Percentage with respect to the control” value is listed as 49%. In [3], the “Suppression of uptake of [3H]-thymidine into Con A-stimulated T-lymphocytes” value came out at 52%. Besides, the “Suppression of uptake of [3H]-thymidine into LPS-stimulated B-lymphocytes” value in data set [4] is listed as 15%. Further, in data set [5] (Conc. 5.9 μM), the “Development of blue patch +, number of animals in a group of five” value (“Development of blue patch +” below) is given as 2; the “Development of blue patch -, number of animals in a group of five” value (“Development of blue patch -, number … of five” for short) is reported as 0; the “Development of blue patch ±, number of animals in a group of five” value (“Development of blue patch ±” below) was determined as 3. Besides, in data set [5] (Conc. 59 μM), the “Development of blue patch +” value turned out to be 0; the “Development of blue patch -, number … of five” value is recorded as 4; the “Development of blue patch ±” value amounted to 1. In data set [5] (Conc. 590 μM), the “Development of blue patch +” value is 0; the “Development of blue patch -, number … of five” value is listed as 5; the “Development of blue patch ±” value worked out at 0. The “Suppressive effects on PCA reactions” value in data set [5] (intradermal injections of 590 and 59 μM) is given as “comparable to those of DSCG”. Also, the Solubility entry in the data set “Solubility” is “Soluble in water, methanol, ethanol, and dimethyl sulfoxide; also recorded: Insoluble in organic solvents such as acetone, ethyl acetate,”.
One may read the LD50 as the dose expected to kill half of the subjects tested. Read a high LD50 as a less toxic substance. For the compound `CCCCCCCCCCCCC[C@@H](O)CC(=O)N[C@@H](CCC(=O)O)C(=O)N[C@H](CCCN)C(=O)N[C@H]1Cc2ccc(cc2)OC(=O)[C@H]([C@@H](C)CC)NC(=O)[C@@H](Cc2ccc(O)cc2)NC(=O)[C@H](CCC(N)=O)NC(=O)[C@@H]2CCCN2C(=O)[C@@H](C(C)C)NC(=O)[C@H](CCC(=O)O)NC(=O)[C@@H]([C@@H](C)O)NC1=O` [Plipastatin B1] ({Hexadecanoyl(3R-OH)}-E[dOrn]Y[d(aThr)]E[dV]PQ[dY]I; ester 3-C), the “Degree of inhibition, IC50, phospholipase A2” value at phospholipase A2 is 5.2 µg/mL. For the same compound, at phospholipase C, the “Degree of inhibition, IC50, phospholipase C” value stood at 3.6 µg/mL. In data set [1], the “Degree of inhibition, IC50, phospholipase D” value turned out to be 2.8 µg/mL. Moreover, in data set [2] (dose 0.5 mg/Kg single i.p.), the Thickness of footpad is reported as 97 ± 44 × 10^-2 mm and the “Percentage with respect to the control” value came to 99%. Moreover, in data set [2] (dose 5 mg/Kg single i.p.), the Thickness of footpad is 57 ± 31 × 10^-2 mm and the “Percentage with respect to the control” value is 58%. In addition, in data set [3], the “Suppression of uptake of [3H]-thymidine into Con A-stimulated T-lymphocytes” value is 54%. For the same compound, the “Suppression of uptake of [3H]-thymidine into LPS-stimulated B-lymphocytes” value in data set [4] turned out to be 20%. Also, the Solubility result in “Solubility” is “Soluble in water, methanol, ethanol, and dimethyl sulfoxide; also recorded: Insoluble in organic solvents such as acetone, ethyl acetate,”. In [6], this compound displayed an LD50 of 250 to 500 mg/kg.
Turning to Plipastatin A2, the “Degree of inhibition, IC50, phospholipase A2” value at phospholipase A2 came out at 3.4 µg/mL. Moreover, the “Degree of inhibition, IC50, phospholipase C” value at phospholipase C is 4.0 µg/mL. Moreover, the “Degree of inhibition, IC50, phospholipase D” value in data set [1] was determined as 3.8 µg/mL. Also, the Solubility entry in “Solubility” was “Soluble in water, methanol, ethanol, and dimethyl sulfoxide; also recorded: Insoluble in organic solvents such as acetone, ethyl acetate,”.
Turning to `O=C([O-])c1cc(=O)c2c(OCC(O)COc3cccc4oc(C(=O)[O-])cc(=O)c34)cccc2o1.[Na+].[Na+]` [DSCG, disodium cromoglycate, reference compound], in [5] (Conc. 59 μM), the “Development of blue patch +” value came to 0; the “Development of blue patch -, number … of five” value is 4; the “Development of blue patch ±” value is 1. Also, in data set [5] (Conc. 590 μM), the “Development of blue patch +” value turned out to be 0; the “Development of blue patch -, number … of five” value was found to be 4; the “Development of blue patch ±” value came out at 1.
For Plipastatin B2, at phospholipase A2, the “Degree of inhibition, IC50, phospholipase A2” value was determined as 3.5 µg/mL. Besides, the “Degree of inhibition, IC50, phospholipase C” value on phospholipase C amounted to 4.5 µg/mL. Further, in data set [1], the “Degree of inhibition, IC50, phospholipase D” value amounted to 3.3 µg/mL. The Solubility result in “Solubility” was “Soluble in water, methanol, ethanol, and dimethyl sulfoxide; also recorded: Insoluble in organic solvents such as acetone, ethyl acetate,”.

Source of the values: US4742155A, “Plipastatin and method for preparation thereof” (Zaidan Hojin Biseibutsu Kagaku Kenkyu Kai, priority 1984, dated 1988).
